The results in this text go back to patent US20240300905A1, “Quinazoline Compounds and Uses” (Prosetta Biosciences, Inc., priority 2023, published 2024).

Some results are limits rather than exact numbers.

Holding throughout (format): cell-based
The test system of one experiment is Hennes-20 cells. Nature of the experiment: Hennes-20 oncology screen (low vs high plating density, alamar Blue). The settings on record: 72 h, Hennes-20 cells, 72 hours compound incubation, alamar Blue; read-out: EC50. On the procedure: All compounds mentioned as active were tested in Hennes. Select hits from the Hennes screen were sent for additional anti-cancer testing.
To screen compounds for oncology activity Hennes-20 cells were plated at low (500 cells/well) versus high (15,000 cells/well) densities and treated with DMSO (vehicle) or dose-titration of compounds. The rationale for this screen is that an intrinsically toxic compound should kill cells regardless of density, including in Hennes-20 cells. However, a compound that selectively triggers the arrest of proliferation will inhibit cell growth when plated at a low density will appear cytotoxic due to inhibition of cell growth when plated at a low density but will appear non-toxic to cells plated at a high density where the cells are approaching confluence and the readout detected by a cell viability assay is already close to the maximum.
To conduct the Hennes-20 screen, two 96 well plates were seeded with Hennes 20 cells in parallel where one was plated at a density of 500 cells/well and the other was plated at a density of 15,000 cells/well. 90 uL of minimum essential media was added to each well and plates were placed in a 37 degrees Celsius incubator for 24 hours. The next day, 10 ul of media containing dilutions of compound in DMSO were added to each plate. Six wells on each plate received 10 ul of media containing only DMSO. Each well was gently mixed 5 times with a 100 ul pipette. Plates were incubated at 37 degrees Celsius for 72 hours then 10 uL of alamar Blue was added to each well. Wells were mixed 5 times then incubated at 37 degrees Celsius for […]. Plates were then read at 530/590.
The rationale for the screen is as follows: Hennes-20 cells lack endogenous apoptosis. Cells plated at low density will proliferate and approach confluence in 72 hrs. A drug that arrests proliferation may have its proliferation blocking effect masked by the triggering of endogenous apoptosis. However, in the Hennes line, lacking endogenous apoptosis, such an arrest is manifest as a dose-dependent maintenance at low cell density. Since the high-density cells are plated close to confluence, the difference between Alamar Blue cell survival readings after 72 hrs reflects the ability of the drug to block proliferation in the low density-plated cells. In the high density-plated cells any diminution of Alamar Blue readout vs vehicle control is due to intrinsic toxicity, not proliferation arrest, since cells were already at confluence. Thus, a compound that appears toxic (low Alamar Blue readings after 72 hrs) on the low-density plate, but which appears non-toxic (high Alamar Blue readings after 72 hrs) on the high-density plate, must be arresting proliferation, since intrinsic compound toxicity should be observed at both low and high cell densities, not selectively on the low-density plate.
A general note: The colour change of resazurin is a common sign of viable cells or microbes.

Another experiment deals with plasmodium. Nature of the experiment: Malaria screen (SYBR green fluorescence, plasmodium parasitemia culture). Particulars: 0.5% plasmodium parasitemia culture, 48 hours. On the procedure:
Compound was added to a 0.5% plasmodium parasitemia culture for 48 hours, then treated with SYBR green (a dye with marked fluorescence enhancement upon contact with plasmodium DNA) and the fluorescence was measured in drug treated versus untreated cells to determine inhibitory effects (Smilkstein, et al., “Simple and inexpensive fluorescence-based technique for high-throughput antimalarial drug screening,” Antimicrob Agents Chemother, 2004 May; 48(5):1803-6. doi: 10.1128/AAC.48.5.1803-1806.2004. PMID: 15105138: PMCID: PMC400546).

The next experiment has as its system NL4-3 Rluc virus. Nature of the experiment: HIV screen (NL4-3 Rluc virus in MT-2 cells, luciferase readout). Particulars: Human immunodeficiency virus 1, NL43, MT2, 96 h. On the procedure: MT-2 cells were preseeded in 96-well plates in 100 uL of complete RPMI. Multiple concentrations of PAV-951 were serially diluted in DMSO then into an infection media prepared by diluting NL4-3 Rluc virus stock to 400 IU/100 uL with complete RPMI, which was transferred onto the MT-2 cells with a final MOI of 0.02 and final DMSO concentration of 1% in infected places. One well received DMSO only, instead of PAV-951, and one well received medium only for normalization and background collection. Cells were incubated at 37 degrees Celsius for 96 hours. 100 ul of medium was removed and discarded and 10 uL of 15 uM EnduRen luciferase substrate was added to each well, followed by incubation for 1.5 hours at 37 degrees Celsius. Plates were read on a luminescence plate reader. Bioluminescence intensity was read on a Synergy H1 BioTek plate reader. Averages and standard deviation for viral titer observed under different treatment conditions were calculated in Microsoft Excel and graphed as the percent inhibition in PAV-951 treated cells compared to untreated cells.

As usually defined, the EC50 is the concentration at which the effect is half-maximal. For the compound `c1ccc(CCNc2ncnc3cc(N4CCN(c5ccc6c(NCCc7ccccc7)ncnc6c5)CC4)ccc23)cc1` [Compound 1], the EC50 in the experiment on Hennes-20 cells is below 0.5 µM; in the experiment with plasmodium, 0.036 µM.
For `Cn1cccc1CCNc1ncnc2cc(N3CCN(c4ccc5c(NCCc6cccn6C)ncnc5c4)CC3)ccc12` [Compound 5], the EC50 in the experiment with Hennes-20 cells was below 2.5 µM; in the experiment on NL4-3 Rluc virus, 0.19 µM; in the experiment on plasmodium, 0.031 µM.
Taken in the same sequence, the figures for `CC(C)CCNc1ncnc2cc(N3CCN(c4ccc5c(NCCC(C)C)ncnc5c4)CC3)ccc12` [Compound 6] were below 0.5 µM, 0.34 µM and 0.024 µM.
Regarding `CC(C)CCNc1ncnc2cc(N3CCN(c4ccc5c(NCCc6ccccc6)ncnc5c4)CC3)ccc12` [Compound 11], the values for the EC50 in the experiment on Hennes-20 cells and with plasmodium were below 0.1 µM and 0.032 µM, respectively.
In turn, `CC(C)CCN(C)c1ncnc2cc(N3CCN(c4ccc5c(N(C)CCC(C)C)ncnc5c4)CC3)ccc12` [Compound 26] came in with an EC50 in the experiment on plasmodium of 0.068 µM.
In the case of `c1cc(CCNc2ncnc3cc(N4CCN(c5ccc6c(NCCc7ccncc7)ncnc6c5)CC4)ccc23)ccn1` [Compound 33], the figures for the EC50 in the experiment on Hennes-20 cells and in the experiment with plasmodium were below 12.5 µM and 0.03 µM, respectively.
`CC(C)CCNc1ncnc2cc(N3CCN(c4ccc5ccn(CCC(C)C)c5c4)CC3)ccc12` [Compound 34]: a half-maximal response with plasmodium (EC50) required 0.2 µM.
`CC(C)CCNc1ncnc2cc(N3CCNCC3)ccc12` [Compound 35] gave an EC50 in the experiment on plasmodium of 0.77 µM.
Regarding `CC(C)CCNc1ncnc2cc(N3CCN(c4ccc5c(NCCC6CCNCC6)ncnc5c4)CC3)ccc12` [Compound 36], the EC50 in the experiment on Hennes-20 cells was below 12.5 µM; with plasmodium, 0.76 µM.
In the experiment on plasmodium, `CN1CCC(Nc2ncnc3cc(N4CCN(c5ccc6c(NC7CCN(C)CC7)ncnc6c5)CC4)ccc23)CC1` [Compound 38] showed an EC50 of 1.4 µM.
`CC(C)CCn1ccc2cc(N3CCN(c4ccc5c(ccn5CCC(C)C)c4)CC3)ccc21` [Compound 39]: in the experiment with plasmodium, the response was half-maximal at 3 µM (EC50).
As for `c1ccc(CCNc2ncnc3cc(N4CCN(c5ccc6c(NCCc7ccccn7)ncnc6c5)CC4)ccc23)nc1` [Compound 40], the EC50 in the experiment with Hennes-20 cells is below 12.5 µM; with plasmodium it was 0.091 µM.
With `c1cncc(CCNc2ncnc3cc(N4CCN(c5ccc6c(NCCc7cccnc7)ncnc6c5)CC4)ccc23)c1` [Compound 41], the EC50 was below 12.5 µM in the experiment on Hennes-20 cells and 0.06 µM with plasmodium.
Compound `CC(C)CC(=O)Nc1ncnc2cc(N3CCN(c4ccc5c(NC(=O)CC(C)C)ncnc5c4)CC3)ccc12` [Compound 43] gave an EC50 in the experiment on plasmodium above 10 µM.
Regarding `Clc1ccc2c(N3CCN(c4ncnc5cc(Cl)ccc45)CC3)ncnc2c1` [Compound 46], the EC50 with NL4-3 Rluc virus was 0.51 µM; in the experiment on plasmodium, above 10 µM.
